In US20230355557A1, “ANTIVIRAL SOX INHIBITORS” (Gertrude Biomedical Pty LTD, priority 2020, published 2023):

What was measured:
Assay type in all cases: cell-based
SOX18 [1] = biological target: T1, SOX18 (Mus musculus, UniProt P43680); assay: VCAM-1 luciferase reporter assay in COS-7 cells transfected with Vcam-1 promoter construct and SOX18; conditions: VCAM-1 promoter luciferase, 24 hr compound incubation, % of maximal signal without compound
T1 construct: expressed in transfected cells; host or cells: COS-7 (monkey kidney fibroblast-like cells)
T1 sequence (P43680 1-377): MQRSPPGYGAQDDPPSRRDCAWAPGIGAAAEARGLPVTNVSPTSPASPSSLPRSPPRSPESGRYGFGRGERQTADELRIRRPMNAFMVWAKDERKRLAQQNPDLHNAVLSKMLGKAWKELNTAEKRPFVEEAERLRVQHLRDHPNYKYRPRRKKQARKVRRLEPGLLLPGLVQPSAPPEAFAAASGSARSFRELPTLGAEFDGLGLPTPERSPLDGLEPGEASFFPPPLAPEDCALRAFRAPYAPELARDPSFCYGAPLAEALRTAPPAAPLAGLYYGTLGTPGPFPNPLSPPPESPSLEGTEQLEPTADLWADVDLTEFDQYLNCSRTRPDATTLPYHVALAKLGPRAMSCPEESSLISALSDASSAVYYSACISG
Protocol: Monkey kidney fibroblast-like cells (COS-7) were cultured at 37° C. and 5% CO2 in DMEM (Life Technologies, 11995) with fetal bovine serum (FBS), sodium pyruvate, L-glutamine, penicillin, streptomycin, non-essential amino acids, and HEPES. Cells were grown in 96-well plates to 80% confluence and transfected with mouse plasmids pGL2 Vcam-1 promoter construct (VC1889) and pReceiver M49 SOX18, using X-tremeGENE HP DNA transfection reagent (Roche, 6366236001). After 4 hr of transfection, cells were incubated with compounds in 0.5% FBS medium for another 24 hr, before lysis and luciferase assay (Perkin Elmer, 6016711). Results are presented as %inhibition of the maximal signal observed in cells transfected with VCAM-1 and SOX18 without compound incubation.
The second assay measured the interaction between SOX18 and the VCAM-1 promoter (Hosking et al., (2004) J Biol. Chem. 297:5314-5322). […] Without wishing to be bound by theory, it is understood that viral infection can induce an inflammatory response of endothelial cells, the latter being a result of VCAM-1 gene expression which is regulated by SOX18 activity (Huber J. (1994) J Virol. 68(6):3453-8). Put another way, the expression of VCAM-1 is driven by SOX18 so upon virus infection, SOX18 binds to the VCAM promoter and induces expression of VCAM.
The compounds described in Table 2 were tested by the VCAM-1 luciferase reporter assay. The results are shown in Table 2 under the column %inhibition of SOX18.

[2] = system: Kaposi sarcoma herpesvirus (KSHV); assay: KLEC genome copy number assay in KSHV-infected primary human dermal lymphatic endothelial cells; conditions: KSHV-infected LECs, 6 days
Protocol: The relative expression of KSHV from control was quantified and single values from n=3 technical replicates are shown. Bars represent mean + SD. P values were calculated using a 2-way ANOVA (left) and ordinary one way-ANOVA (right) followed by Dunnett’s multiple comparison test.
(§1) KSHV-infected cells were incubated with the indicated inhibitor at the concentrations stated in the Figure panels for six days prior to analysis. HeLa cells were incubated with the indicated inhibitor at the concentrations stated in the Figure panels for 24 hours prior to analysis.
Primary human dermal lymphatic (C-12216) endothelial cells (LECs) were purchased from Promocell and grown in Lonza EBM-2 (00190860) supplemented with EGMTM-2 MV Microvascular Endothelial SingleQuotsTM(CC-4147). Cell from passage 1-3 were used.
rKSHV.219 was produced from iSLK.219 cells reactivated using 0.2 µg/ml doxycycline and 1.35 mM NaB for 72 h. Supernatant was harvested, spun down (2000 rpm 5 min) and sterile filtered using […] pore-size filters. Subsequently the supernatant was ultracentrifuged at 22000 rpm for 2 h. The concentrated virus was then aliquoted and stored at -80° C.
Equal number of LECs were seeded into 6-well assay-plates and incubated at 37° C. & 5% CO2 until 80% confluency. After reaching confluency, LECs were infected with rKSHV.219 and incubated at 37° C. & 5% CO2 for 3 days, making sure that the cell density remained similar. Cell were subsequently mixed at a 2:3 ratio with uninfected LECs for 2 days. Once GFP expression and cell spindling was observed the culture medium was replaced with medium containing the experimental compounds with 0.25% DMSO (v/v) at concentrations from 0.1 uM to 50 uM. After 3 days of incubation, the cells were replenished with new medium containing experimental compounds and incubated for 3 more days.
After compound incubation, cells were collected and genomic and viral DNA was extracted using the NucleoSpin Tissue Kit (Macherey-Nagel, 740952) following the kit’s standard protocol. qPCR was subsequently completed (SYBR Green, ThermoFisher K0222) in triplicates using primers for viral K8.1 and Human genomic actin. K8.1 forward primer: […] (SEQ ID NO:1); reverse primer: […] (SEQ ID NO:2). Genomic acid forward primer: […] (SEQ ID NO:3); reverse primer: […] (SEQ ID NO:4).
A KLEC assay was used to examine the ability of the compounds to inhibit viral copy number in virus infected primary human dermal lymphatic endothelial cells (LECs).

SOX18 [3] = biological target: T2, SOX18 (Homo sapiens, UniProt P35713); assay: SOX18 luciferase reporter assay (7XTR and OriA reporters) in HeLa cells; conditions: HeLa cells transfected with SOX18 and 7xTR or OriA reporter, 24 hours treatment (FIG. 2)
T2 construct: expressed in transfected cells; host or cells: HeLa
T2 sequence (P35713 1-384): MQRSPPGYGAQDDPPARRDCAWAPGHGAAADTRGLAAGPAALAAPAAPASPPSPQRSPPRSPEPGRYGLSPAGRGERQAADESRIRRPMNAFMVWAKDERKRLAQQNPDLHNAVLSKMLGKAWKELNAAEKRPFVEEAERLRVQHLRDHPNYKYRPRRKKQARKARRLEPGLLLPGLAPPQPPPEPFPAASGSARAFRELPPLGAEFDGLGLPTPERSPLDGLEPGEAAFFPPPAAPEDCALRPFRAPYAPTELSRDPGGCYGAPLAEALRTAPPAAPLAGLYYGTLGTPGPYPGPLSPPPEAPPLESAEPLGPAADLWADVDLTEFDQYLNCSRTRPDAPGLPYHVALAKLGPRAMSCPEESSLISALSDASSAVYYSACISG
Protocol: Luciferase signal was quantified and single values from n=3 technical replicates are shown. Data points represent mean + SD. P values were calculated using a 2-way and ordinary one way ANOVA followed by Dunnett’s multiple comparison test.
as §1
HeLa cells were cultured in DMEM containing 10% FCS, 1% L-glutamine and 1% pen/strep at 37° C. & 5% CO2. Cells were seeded at a density of 7000 cells per well in 125 µL of the maintenance medium in a 96-well format for 24 hours.
Plasmids were transfected using FuGENE HD Transfection Reagent (Promega E2311) (1:4 DNA to reagent ratio) and Opti-MEM (ThermoFisher 31985062). OriA-luc negative control and experimental wells contained 25 ng OriA-luc plasmid and 10 ng SOX18 plasmid per well, positive control contained 25 ng OriA-luc plasmid and 10 ng mCherry plasmid per well. 7XTR-luc negative control and experimental wells contained 50 ng 7XTR-luc plasmid and 20 ng SOX18 plasmid per well, positive control contained 50 ng 7XTR-luc plasmid and 20 ng mCherry plasmid per well. Cell were incubated for 18 hours before cells were replenished with new medium containing experimental compounds and incubated for 24 hours.
Luminescence was measured by adding an equal volume of Steady-Glo reagent to cells at room temperature and luminescence was quantified using the FLUOstar plate reader (BMG Labtech, FLUOstar Omega; 4 sec intervals per well).
Activation of these genes was measured using HeLa cells that were transfected with luciferase-reporters harbouring either seven copies of the TR (7XTR) or the OriA promoter fused to OriLyt upstream of an SV40 promoter and a firefly luciferase reporter. ORF, that binds to the OriLyt and is a potent activator of this reporter (Chen J et al., (2009) Virology 386:290-302) was used as a positive control. […]

Compound	%inhibition of Sox18 (SOX18 [1]) [%]	also measured
O=C(O)c1c(O)cccc1CCc1ccc2ccccc2c1 [GB001, 2-hydroxy-6-(2-(naphthalen-2-yl)ethyl)benzoic acid]	99.10	reduction in KSHV genome copy number (fold change) ([2]; 10 µM): Significant reduction in genome copy number; reduction in KSHV genome copy number (fold change) ([2]; 50 µM): Significant reduction in genome copy number; interference with SOX18-mediated gene transcription (luciferase signal) (SOX18 [3]): interferes with SOX18-mediates gene transcription
COc1cccc(/C=C/c2ccc3ccccc3c2)c1C(=O)O [GB002, (E)-2-methoxy-6-(2-(naphthalen-2-yl)vinyl)benzoic acid]	30.78	reduction in KSHV genome copy number (fold change) ([2]; 50 µM): Significant reduction in genome copy number; interference with SOX18-mediated gene transcription (luciferase signal) (SOX18 [3]): interferes with SOX18-mediates gene transcription
O=C(O)c1c(O)cccc1CCc1ccc(Cl)cc1Cl [GB004, 2-(2,4-dichlorophenethyl)-6-hydroxybenzoic acid]	48.26	reduction in KSHV genome copy number (fold change) ([2]; 5 µM): Significant reduction in genome copy number; interference with SOX18-mediated gene transcription (luciferase signal) (SOX18 [3]): interferes with SOX18-mediates gene transcription
COc1ccc(CCc2cccc(OC)c2C(=O)O)cc1 [GB005, 2-methoxy-6-(4-methoxyphenethyl)benzoic acid]	25.32	
COc1cccc(COCc2ccc3ccccc3c2)c1C(=O)O [GB006, 2-methoxy-6-((naphthalen-2-ylmethoxy)methyl)benzoic acid]	19.33	
COC(=O)c1c(O)cccc1/C=C/c1ccccc1 [GB026, methyl (E)-2-hydroxy-6-styrylbenzoate]	49.66	
COc1cccc(CCc2cccc3ccccc23)c1C(=O)O [GB027, 2-methoxy-6-(2-(naphthalen-1-yl)ethyl)benzoic acid]	47.43	
COC(=O)c1c(O)cccc1CCc1ccc(Cl)cc1 [GB028, methyl 2-(4-chlorophenethyl)-6-hydroxybenzoate]	48.31	

The next lines start with results.

%inhibition of Sox18 (SOX18 [1]) [%]	Compound	also measured
49.18	O=C(O)c1c(O)cccc1CCc1ccccc1 [GB003, 2-hydroxy-6-phenethylbenzoic acid]	
96.7	Cc1cc(O)c(C(=O)O)c(CCc2ccc3ccccc3c2)c1 [GB012, 2-hydroxy-4-methyl-6-(2-(naphthalen-2-yl)ethyl)benzoic acid]	
54.02	O=C(O)c1c(O)cc(Cl)cc1CCc1ccc2ccccc2c1 [GB019, 4-chloro-2-hydroxy-6-(2-(naphthalen-2-yl)ethyl)benzoic acid]	
67.19	COc1cc(O)c(C(=O)O)c(CCc2ccc3ccccc3c2)c1 [GB025, 2-hydroxy-4-methoxy-6-(2-(naphthalen-2-yl)ethyl)benzoic acid]	
